Here are results for one substance from patent publication US8518883B2, “Method of reducing deleterious effects of ischemia by administration of a thrombopoietin receptor ligand” (MCW Research Foundation, Inc., priority 2006, dated 2013).

Experiment [1] concerns Sprague Dawley rats. As to the kind of experiment: Coronary artery ligation model, delayed cardioprotection, Tpo given 24 hours before ischemia. Type of experiment: in vivo, rat. As to conditions: Tpo 0.05 micrograms/kg 24 hours before 30 min regional ischemia, 3 hours reperfusion. How it is done: Animals used in this study were adult male Sprague Dawley rats (200-350 g, generally 300 g). Animals were housed under standard conditions and allowed to feed ad lib.
Rats were anesthetized with sodium pentobarbital (50 mg/kg i.p.). Heparin was administered (150 U/kg i.p.) to prevent the formation of a thrombus in the coronary vasculature. A myocardial infarction was produced via the ligation of the left main artery using 6-0 prolene suture (See, e.g., Clements-Jewery, et al., supra, 2002; Farkas et al., supra, 2002). The left main coronary artery was identified and ligated with a 5-0 Prolene suture threaded through a polyethylene tube to act as an occluder. A control group included sham operated hearts in which only a suture was passed around the left main coronary artery was performed.
Animals were treated with Tpo (0.05 micrograms/kg) administered intraperitoneally and the animals allowed to recover for 24 hours prior to the onset of ischemia. Regional ischemia and reperfusion were induced by tightening the occluder and by releasing it. Hearts were then subjected to 30 minutes regional ischemia followed by 3 hours reperfusion. […]
(§1) The heart was sectioned in 2 mm segments from apex to atrio-ventricular groove in a transverse fashion. Each segment was recorded and placed in formalin. […] The percentage of infarction of each slide was expressed as a percentage of the entire area of the heart.

Experiment [2] relates to Sprague Dawley rats. Nature of the experiment: Coronary artery ligation model, Tpo given after the onset of ischemia. As to conditions: Tpo 0.05 μg/kg 15 min prior to reperfusion (15 min after onset of 30 min regional ischemia). Type of experiment: in vivo, rat. How it is done: FIG. 9 is a graphic depiction of the effect of Tpo (0.05 μg/kg) on myocardial infarct size in vivo (as percentage % of area at risk) when administered intravenously 15 minutes after the onset of 30 minutes regional myocardial ischemia in vivo induced by suture ligation of the left main coronary artery and 3 hours reperfusion. *=P<0.05, with Tpo vs. without Tpo (control).
Animals used in this study were adult male Sprague Dawley rats (200-350 g, generally 300 g). Animals were housed under standard conditions and allowed to feed ad lib. The Animal Care and Use Committee of the Medical College of Wisconsin approved all procedures performed in accordance with the regulations adopted by the National Institutes of Health.
A myocardial infarction was produced via the ligation of the left main artery using 6-0 prolene suture (See, e.g., Clements-Jewery, et al., supra, 2002; Farkas, et al., supra, 2002). Rats were anesthetized with sodium pentobarbital (50 mg/kg i.p.). The left main coronary artery was identified and ligated with a 5-0 Prolene suture threaded through a polyethylene tube to act as an occluder. […]
as §1

On to Thrombopoietin [Tpo], for which the Myocardial infarct size result with Sprague Dawley rats [1] and in the experiment on Sprague Dawley rats [2] was “decrease” in each case.
